Patent publication US9896439B2, “Pyrazole-substituted arylamides as P2X3 and P2X2/3 antagonists” (Roche Palo Alto LLC, priority 2007, dated 2018)

Legend:
human P2X2/3 receptor = target: T1, human P2X2/3 receptor (Homo sapiens, UniProt P56373+Q9UBL9); experiment: P2X2/3 FLIPR (Fluorometric Imaging Plate Reader) assay; assay type: cell-based; conditions: CHO-K1 cells transfected with human P2X2/3; agonist α,β-meATP 5 μM; Fluo-3 AM fluorescence; read-out: pKi for the P2X2/3 receptor (converted)
T1 construct: expressed in transfected cells; host or cells: CHO-K1
T1 sequence (Q9UBL9 1-471): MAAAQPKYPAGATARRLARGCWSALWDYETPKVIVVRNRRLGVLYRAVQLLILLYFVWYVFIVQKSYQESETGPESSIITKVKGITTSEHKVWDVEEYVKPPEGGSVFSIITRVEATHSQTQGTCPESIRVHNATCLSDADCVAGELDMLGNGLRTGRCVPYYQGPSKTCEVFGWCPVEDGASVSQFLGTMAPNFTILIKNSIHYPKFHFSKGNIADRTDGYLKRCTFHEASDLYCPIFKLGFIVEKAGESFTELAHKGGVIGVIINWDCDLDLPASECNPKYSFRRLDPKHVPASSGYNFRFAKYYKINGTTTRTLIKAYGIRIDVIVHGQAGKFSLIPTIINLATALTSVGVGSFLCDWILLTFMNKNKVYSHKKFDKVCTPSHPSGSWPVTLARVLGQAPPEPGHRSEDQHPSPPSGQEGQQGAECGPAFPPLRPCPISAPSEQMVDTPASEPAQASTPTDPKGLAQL
T1 sequence (P56373 1-397): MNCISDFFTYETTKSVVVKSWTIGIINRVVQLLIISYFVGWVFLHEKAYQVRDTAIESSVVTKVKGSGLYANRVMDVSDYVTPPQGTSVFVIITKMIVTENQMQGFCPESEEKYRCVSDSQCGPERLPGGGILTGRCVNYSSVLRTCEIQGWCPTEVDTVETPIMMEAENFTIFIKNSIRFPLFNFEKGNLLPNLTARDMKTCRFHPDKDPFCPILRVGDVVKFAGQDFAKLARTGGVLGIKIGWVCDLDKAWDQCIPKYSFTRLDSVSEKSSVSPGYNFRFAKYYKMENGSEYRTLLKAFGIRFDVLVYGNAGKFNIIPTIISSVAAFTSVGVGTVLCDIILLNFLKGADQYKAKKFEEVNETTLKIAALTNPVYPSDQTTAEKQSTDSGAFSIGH
Method: (§1) CHO-K1 cells were transfected with cloned rat P2X3 or human P2X2/3 receptor subunits and passaged in flasks. 18-24 hours before the FLIPR experiment, cells were released from their flasks, centrifuged, and resuspended in nutrient medium at 2.5×10^5 cells/ml. The cells were aliquoted into black-walled 96-well plates at a density of 50,000 cells/well and incubated overnight in 5% CO2 at 37° C. On the day of the experiment, cells were washed in FLIPR buffer (calcium- and magnesium-free Hank's balanced salt solution, 10 mM HEPES, 2 mM CaCl2, 2.5 mM probenecid; FB). Each well received 100 μl FB and 100 μl of the fluorescent dye Fluo-3 AM [2 μM final conc.]. […]
(§2) Test compounds (dissolved in DMSO at 10 mM and serially diluted with FB) or vehicle were added to each well (25 μl of a 4× solution) and allowed to equilibrate for 20 minutes at room temperature. The plates were then placed in the FLIPR and a baseline fluorescence measurement (excitation at 488 nm and emission at 510-570 nm) was obtained for 10 seconds before a 100 μl/well agonist or vehicle addition. […] Fluorescence was measured for an additional 2 minutes at 1 second intervals after agonist addition. A final addition of ionomycin (5 μM, final concentration) was made to each well of the FLIPR test plate to establish cell viability and maximum fluorescence of dye-bound cytosolic calcium. […]

rat P2X3 receptor = target: T2, rat P2X3 receptor (Rattus norvegicus, UniProt P49654); experiment: P2X3 FLIPR (Fluorometric Imaging Plate Reader) assay; assay type: cell-based; conditions: CHO-K1 cells transfected with cloned rat P2X3; agonist α,β-meATP 1 μM; Fluo-3 AM fluorescence; read-out: pIC50 for the P2X3 receptor (converted)
T2 construct: expressed in transfected cells; host or cells: CHO-K1
T2 sequence (P49654 1-397): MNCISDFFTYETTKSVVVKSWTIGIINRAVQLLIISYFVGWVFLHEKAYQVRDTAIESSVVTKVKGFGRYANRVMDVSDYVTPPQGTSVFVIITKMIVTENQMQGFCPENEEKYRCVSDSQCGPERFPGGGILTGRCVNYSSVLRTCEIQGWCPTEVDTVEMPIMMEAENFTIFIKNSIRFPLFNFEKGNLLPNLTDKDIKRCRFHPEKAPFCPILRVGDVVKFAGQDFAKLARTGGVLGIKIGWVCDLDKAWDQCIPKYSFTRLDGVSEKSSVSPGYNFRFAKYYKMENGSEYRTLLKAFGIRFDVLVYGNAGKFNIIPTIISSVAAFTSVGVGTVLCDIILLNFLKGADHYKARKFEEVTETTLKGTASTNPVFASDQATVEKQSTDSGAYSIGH
Method: as §1, §2

| Compound | Ki (human P2X2/3 receptor) | IC50 (rat P2X3 receptor) |
| --- | --- | --- |
| Cc1ccc(-c2cc(C(=O)NCc3ccc(C)nn3)cc(-n3nccc3CC(C)C)c2)nc1 [Compound 101, 3-(5-Isobutyl-pyrazol-1-yl)-N-(6-methyl-pyridazin-3-ylmethyl)-5-(5-methyl-pyridin-2-yl)-benzamide] | ~0.0214 µM |  |
| Cc1ccc(-c2cc(C(=O)N[C@@H](C)CO)cc(-c3ccnn3C3CCC3)c2)nc1 [Compound 70, 3-(2-Cyclobutyl-2H-pyrazol-3-yl)-N-((S)-2-hydroxy-1-methyl-ethyl)-5-(5-methyl-pyridin-2-yl)-benzamide] |  | ~0.00214 µM |
